This is an account of results in patent US6759430B2, “Piperidine and pyrrolidine derivatives comprising a nitric oxide donor for treating stress” (OxoN Medica Inc., priority 1998, dated 2004).

The subject of test [1] is rat aortic rings (RARs). In words: in vitro induction of tolerance in rat aortic rings. The settings on record: for tolerance induction in vitro: RARs pre-exposed to 0.44 mM of the drug for 1 hr; for vaso-relaxant effect on rings before and after exposure to GTN: rings exposed to 0.44 mM GTN for 1 hr, FIGS. 4 and 5; for vaso-relaxant potency, control versus NO-TEMPO-pre-treated RARs: rings exposed to 0.44 mM NO-TEMPO, FIGS. 7 and 8. In kind it is cell-based. The procedure:
(§1) Materials: Male Sprague-Dawley rats (250-300 g) were purchased from the Animal Care Facility of the Hebrew University and used in the rat aortic rings (RARs) relaxation studies in vitro and the blood pressure monitoring and cGMP studies in vivo.
In vitro induction of GTN tolerance: Aortic rings were treated as for the control studies except that rings were exposed to 0.44 mM GTN for 1 hr. At the end of the tolerance induction period, rings were washed every 15 min for the following hour. Attempted induction of tolerance to NO-TEMPO was performed under the same conditions as for GTN with rings exposed to 0.44 mM solution of NO-TEMPO. CCRC were constructed for NO-TEMPO and GTN. […] This conclusion is further supported by separately evaluating the vaso-relaxant effect of each drug on control and NO-TEMPO-pre-treated RARs.

Test [2] is described as follows: superoxide scavenging activity in vitro (photometric microassay, xanthine oxidase/hypoxanthine, ferricytochrome c reduction). In kind it is biochemical. To be noted: inhibition of ferricytochrome c reduction; 0.003-3 mM tested; n=5. The method, then: Assessment of superoxide scavenging activity in vitro
The superoxide scavenging activity of TEMPO-4-mononitrate (0.003-3 mM) and reference compound superoxide dismutase (SOD, 200 U/ml), were determined using a photometric microassay in vitro (Laight et al., Environ. J. Toxicol. Pharmracol., 3, 65-68, 1997) developed from the assay of McCord & Fridovich (J. Biol. Chem., 244, 6059-55, 1969). The assay mixture consisted of (final concentration): 50 μl ferricytochrome c (100 μM); 10 μl xanthine oxidase (20 mU/ml); 20 μl hypoxanthine (100 μM); and 20 μl sample dissolved in isotonic phosphate (10 mM)-buffered saline (PBS, pH 7.4) to make a total volume of 100 μl in a 96-well plate. The reaction was conducted at room temperature and initiated by the addition of hypoxanthine. The increase in optical density (OD) at […] was measured over a 3 min period of 30 s intervals and initial reaction rates determined at least in triplicate.
There was a linear relationship between the initial reaction rate and the concentration of xanthine oxidase (5-20 mU/ml) (r=0.9982, P<0.002, n=4). […] Xanthine oxidase at 20 mU/rml, which provided an initial reaction rate of 28.3±1.7 mOD/min (n=4), was adopted for subsequent inhibition studies (see McCord & Fridovich, 1969). The initial reaction rate was depressed by SOD (200 U/ml) by 95.3±1.1% (n=4, P<0.01) and by TEMPO-4-mononitrate (see FIG. 1).

Test [3] concerns rat aortic rings (RARs). The experiment in a line: in vitro vasorelaxation of epinephrine-contracted rat aortic rings. To be noted: control RARs contracted with epinephrine 1 μM; FIGS. 2 and 3. It is filed as cell-based. The procedure: as §1
In vitro vasorelaxation: Thoracic aortae were removed following anesthesia with intraperitoneal injection of ketamine and xylazine (50 and 10 mg/kg, respectively). The paraadventetial tissue surrounding the vessel was carefully removed. Aortae were cut into rings of 4-5 mm and mounted onto the tissue path. The path buffer (Krebs-bicarbonate) was constantly gassed with carbogen and maintained at 37° C. The rings were preloaded under 2 g tension and equilibrated for 90 min with buffer changed every 15 min. After stabilization, the rings were contracted with epinephrine (1 μM). Commulative Concentration-Response Curves (CCRC) were constructed for NO-TEMPO, glyceryl trinitrate (GTN) and S-nitroso-N-acetylpenicillamine (SNAP). FIGS. 2 and 3 represent the vaso-relaxant effect of NO-TEMPO as compared to the conventional NO-donors GTN and SNAP.

Test [4] is described as follows: in vivo blood pressure (mean arterial pressure) monitoring in anesthetized rats. Also noted: species or system rat. The procedure:
as §1
In the in vivo experiment, rats were anesthetized with an intraperitoneal injection of a combination of ketamine and xylazine (50 and 10 mg per kg, respectively). A catheter was placed in the right external jugular vein and introduced to the level of right atrium. A second arterial catheter was placed in the left carotid artery and introduced to the level of the ascending aorta. The tip of arterial catheter was connected to a pressure transducer which is connected to another electrical transducer connected to a computerized Experimetria system. Blood-pressure (mean arterial pressure=MAP) was recorded before (basal) and after drug administration. NO-TEMPO was injected through the venous catheter and induced a significant drop in MAP which lasts for 5 to 10 minutes. Values for basal MAP were 130±15 before and 60±10 mm Hg following a 1 mg injection of NO-TEMPO.

In test [5] the test system is cGMP content in aortic tissue. The experiment in a line: vascular cGMP content after in vivo administration (RIA). Set-up: species or system rat. To be noted: for effect on vascular cGMP compared to GTN: intravenously in equimolar doses. The procedure:
as §1
Experiments were performed in anaesthetized rats as above. Following i.v. administration of NO-TEMPO (0.1, 0.2, 0.5 mg etc.,) the thorax was opened and the aorta removed immediately (within thirty seconds from the administration). After standard processing procedures, cGMP content in the vascular tissue was measured by Radioimmunoassay (RIA) using commercially available kits (i.e., Kit 500 TRK from Amersham).

Test [6] in a line: in vivo induction of tolerance, subcutaneous dosing. Set-up: species or system rat. The settings on record: subcutaneously 30 mg/kg t.i.d for three consecutive days.

As to `CC1(C)CC(O[N+](=O)[O-])CC(C)(C)N1[O]` [TEMPO-4-mononitrate, 4-Nitrato-2,2,6,6-tetramethylpiperidinyloxy, free radical], in the test on rat aortic rings (RARs) [1], the “tolerance induction in vitro” value is listed as “does not induce tolerance neither to itself nor to GTN”; the “vaso-relaxant effect on rings before and after exposure to GTN” value is “significant difference”; the “vaso-relaxant potency, control versus NO-TEMPO-pre-treated RARs” value is recorded as “no significant difference”. In test [2], this molecule came in with a pIC50 value of 2.89±0.03. Further, the “vaso-relaxant effect compared to conventional NO-donors GTN and SNAP” value with rat aortic rings (RARs) [3] is on record as “superiority of NO-TEMPO to both of these NO-donors”. Also, in test [4] (1 mg injection through venous catheter, basal MAP 130±15), the “mean arterial pressure (MAP) following injection” value is recorded as 60±10 mm Hg. For the same molecule, the “hypotensive effects in vivo compared to GTN and SNAP” value in test [4] (rat, in vivo) was “superiority of this drug to both GTN and SNAP”. In test [4], the “tolerance of the hypotensive effect on MAP following successive administration” value (from here on “tolerance of the hypotensive effect”) is given as “lack of tolerance development”. Also, the “increase in vascular cGMP” value in test [5] (1 mg i.v. versus basal) is given as 4-5 fold. In addition, the “cGMP content in aortic tissue” value in test [5] (1 mg i.v., aorta removed within thirty seconds, basal 46±10) stood at 197±18 pmole/g tissue. The “tolerance of the vascular cGMP effect” value in test [5] (NO-TEMPO pre-treated rats) is “lack of tolerance induction”. In test [5] (control rats), the “effect on cGMP content of vascular tissue” value was “significant increase” and the “effect on vascular cGMP compared to GTN” value is “compared well with that of GTN”. In addition, in test [5] (control rats, listed as NO-TEMPO), the “effect on vascular cGMP compared to GTN” value is “superior activity as compared to GTN”. In addition, the “tolerance induction in vivo” value in test [6] is listed as “does not induce tolerance either to itself or to GTN”.
Take `O=[N+]([O-])OCC(CO[N+](=O)[O-])O[N+](=O)[O-]` [GTN, glyceryl trinitrate, reference compound]: in the test with rat aortic rings (RARs) [1], the “tolerance induction in vitro” value was “induces tolerance both to itself and to NO-TEMPO”; the “vaso-relaxant effect on rings before and after exposure to GTN” value is reported as “development of GTN tolerance”; the “vaso-relaxant potency, control versus NO-TEMPO-pre-treated RARs” value was “no significant difference”. Besides, the “tolerance of the hypotensive effect” value in test [4] is reported as “attenuation to their effect on MAP develops”. Moreover, the “tolerance induction in vivo” value in test [6] is “does induce tolerance to itself and to NO-TEMPO”.
Turning to `CC(=O)N[C@H](C(=O)O)C(C)(C)SN=O` (racemic) [SNAP, S-nitroso-N-acetylpenicillamine, reference compound], the “tolerance of the hypotensive effect” value in test [4] is “attenuation to their effect on MAP develops”.
